Reference: ChEMBL document CHEMBL1201862, “PubChem BioAssay data set” (2004)
Active and inactive are the calls of the source. Cut-off read from the data, not from the text of the source, for most assays here: actives have a measured EC50 and inactives only a lower limit.

Assays:
Major prion protein = Major prion protein (Homo sapiens, UniProt P04156); assay type: functional, cell-based
cells [1] = assay: cells
BJ [2] = assay: BJ-TERT-LT-ST fibroblast viability loss – cell-based, RAS-independent, luminescence, dose response (AID 1935); assay type: functional; conditions: Homo sapiens;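 note: BJ fibroblasts immortalized with TERT plus LT and ST oncogenes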
[3] = system: Streptococcus sp. 'group A'; assay: Streptococcus pyogenes SK(-)GAS viability under kanamycin – luminescence, BacTiterGlo, confirmation, counter-screen for streptokinase expression inhibitor project, dose response (AID 1900); assay type: functional, organism-based
[4] = luciferase reporter signal suppression in cells – H4 neuroglioma cells, luminescence, dose response (AID 1990); assay type: functional, cell-based
BJ [5] = assay: cells; assay type: functional, cell-based; conditions: Homo sapiens
cells [6] = assay type: functional, cell-based
Streptococcus = assay: GAS UMAA2166 growth inhibition – luminescence, BacTiterGlo, counter-screen for streptokinase expression inhibitor project, dose response (AID 1915); assay type: functional, organism-based;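 note: potency for reduction of bacterial viability or growth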
Aminopeptidase N = molecular target: T1, Aminopeptidase N (Plasmodium falciparum FcB1/Columbia, UniProt O96935); assay: malaria alanyl aminopeptidase activity blockers – biochemical, fluorogenic H-Leu-NHMec substrate, 1536-well (AID 1445); parameters: species or system Plasmodium falciparum 3D7, 3D7
T1 sequence (O96935 whole entry): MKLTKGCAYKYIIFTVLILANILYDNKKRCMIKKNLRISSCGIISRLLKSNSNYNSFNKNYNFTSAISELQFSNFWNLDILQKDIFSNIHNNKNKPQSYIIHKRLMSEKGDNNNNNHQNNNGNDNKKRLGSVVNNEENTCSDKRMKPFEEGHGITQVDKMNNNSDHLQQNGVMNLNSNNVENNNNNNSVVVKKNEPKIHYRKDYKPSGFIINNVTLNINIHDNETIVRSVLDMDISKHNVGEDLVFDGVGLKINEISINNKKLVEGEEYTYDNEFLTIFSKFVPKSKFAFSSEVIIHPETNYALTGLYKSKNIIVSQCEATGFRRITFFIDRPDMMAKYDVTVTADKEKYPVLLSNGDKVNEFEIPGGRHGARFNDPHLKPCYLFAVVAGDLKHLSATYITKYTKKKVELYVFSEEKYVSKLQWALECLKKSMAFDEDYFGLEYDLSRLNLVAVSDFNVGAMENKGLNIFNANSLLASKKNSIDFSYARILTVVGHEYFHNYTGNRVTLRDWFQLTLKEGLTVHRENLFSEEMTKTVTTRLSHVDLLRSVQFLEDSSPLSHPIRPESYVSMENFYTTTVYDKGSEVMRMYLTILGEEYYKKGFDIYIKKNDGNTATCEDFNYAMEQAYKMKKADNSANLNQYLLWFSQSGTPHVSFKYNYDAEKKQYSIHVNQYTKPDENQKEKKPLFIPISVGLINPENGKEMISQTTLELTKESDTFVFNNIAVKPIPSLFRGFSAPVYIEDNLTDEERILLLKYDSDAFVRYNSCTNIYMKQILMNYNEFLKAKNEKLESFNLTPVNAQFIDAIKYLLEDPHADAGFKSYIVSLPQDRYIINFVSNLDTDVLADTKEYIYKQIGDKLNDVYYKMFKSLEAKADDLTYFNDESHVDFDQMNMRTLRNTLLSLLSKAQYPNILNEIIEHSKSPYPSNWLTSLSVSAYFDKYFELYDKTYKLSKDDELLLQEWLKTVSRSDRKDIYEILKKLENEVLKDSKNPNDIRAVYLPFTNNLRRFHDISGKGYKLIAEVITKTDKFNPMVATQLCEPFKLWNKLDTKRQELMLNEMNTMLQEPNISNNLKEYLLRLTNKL

[7] = NIH-3T3 fibroblast cytotoxicity, dose response, cytotoxicity control, cell-based, fluorescence, Alamar Blue, secondary assay (AID 2327); assay type: functional;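 note: NIH-3T3 mouse fibroblasts cultured with fluconazole at 8 µg/mL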
[8] = Trypanosoma cruzi growth suppression in host cells – NIH3T3 host cells, beta-gal luminescence, confirmation (AID 2044); assay type: functional, cell-based;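 note: intracellular parasites grown in NIH/3T3 mouse fibroblasts as host cells; luminescent beta-galactosidase reporter signal from transgenic T. cruzi replicating inside host cells; inhibitors lower the luminescence signal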
[9] = fluconazole-exposed Candida albicans growth modulators – fluorescence, retest, confirmation (AID 2467); assay type: functional, cell-based
[10] = NIH3T3 cell viability loss – ATP luminescence, mouse fibroblasts, counter-screen, dose response (AID 2010); assay type: functional, cell-based;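 note: cells exposed to compound for about 90 hours before reading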
[11] = DRD fibroblast viability loss – cell-based, non-viral oncogenic, luminescence, dose response (AID 1934); assay type: functional; conditions: Homo sapiens
[12] = alpha-synuclein stem-loop luciferase translation blockers – H4 neuroglioma cells, luminescence, confirmation (AID 1988); assay type: functional, cell-based
[13] = HGIII-sPLA2 enzyme inhibition potency – biochemical, QFRET, IC50, dose response (AID 743457);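 note: green fluorescence rise as the enzyme cleaves BODIPY PC-A2 in liposomes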
[14] = Luminescence Cell-Based Dose Response HTS to Identify Inhibitors of 5'UTR Stem-Loop Driven Prion Protein mRNA Translation in H4 Neuroglioblastoma Cells. [Related pubchem assays: 1827 (Project Summary), 1813 (Primary HTS)]; assay type: functional
[15] = molecular target: T2, Calpain-2 catalytic subunit (Sus scrofa, UniProt P43367); assay: m-calpain protease blockers, concentration series – biochemical, fluorogenic peptide substrate, dose response (AID 1420); assay type: functional
T2 sequence (P43367 whole entry): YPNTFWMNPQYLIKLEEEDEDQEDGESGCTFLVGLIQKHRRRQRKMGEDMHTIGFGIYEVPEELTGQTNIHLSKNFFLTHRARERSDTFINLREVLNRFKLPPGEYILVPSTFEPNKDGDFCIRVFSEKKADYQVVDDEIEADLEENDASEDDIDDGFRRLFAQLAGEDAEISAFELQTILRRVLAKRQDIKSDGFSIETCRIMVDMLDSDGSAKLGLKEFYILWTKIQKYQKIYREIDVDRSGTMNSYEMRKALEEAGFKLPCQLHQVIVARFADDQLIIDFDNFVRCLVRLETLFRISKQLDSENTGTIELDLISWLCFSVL

cells [16] = assay type: functional, cell-based; remark: listed apart in the source
BJ [17] = assay: BJ-TERT fibroblast viability loss – cell-based, RAS-independent, luminescence, dose response (AID 1933); assay type: functional; conditions: Homo sapiens

Compound | IC50 (Major prion protein) | IC50 (cells [1]) | EC50 (BJ [2]) | EC50 [3] | EC50 [4] | EC50 (BJ [5]) | EC50 (cells [6]) | EC50 (Streptococcus) | IC50 (Aminopeptidase N) | EC50 [7] | EC50 [8] | EC50 [9] | EC50 [10] | EC50 [11] | EC50 [12] | IC50 [13] | EC50 [14] | IC50 [15] | EC50 (cells [16]) | EC50 (BJ [17])
CCc1nc(SCC(=O)N2c3ccccc3Sc3ccccc32)c2ccccc2n1 | 1.84 µM (active) | > 138 µM (inactive) |  |  |  |  |  |  |  |  |  |  |  |  |  |  |  |  |  | 
Oc1ccccc1N=Nc1ccccc1O |  |  | 3.31 µM (inconclusive) | 0.6 µM (active) | 14.7 µM (active) | 2.3 µM (inconclusive) | 12.7 µM (active) | 8.99 µM (active) | 22.1 µM (active) | > 160 µM (inactive) | 1.3 µM (active) | 1.38 µM (active) | 12.1 µM (active) | 1.15 µM (active) | 0.13 µM (active) | > 122 µM (inactive) | > 120 µM (not active) | > 50 µM (not active) | 2.06 µM (active) | 0.626 µM (active)
